Calls of active or inactive are those of the source. No cut-off for these calls is given here.

Assay [1] addresses NPM/ALK (Nucleophosmin/ALK tyrosine kinase receptor) (Homo sapiens) (UniProt Q9UM73+P06748). The assay is described as follows: Induction of NPM-ALK fusion protein degradation in human SR cells. The assay is classed as cell-based.
For another assay, the system named is SR. The assay is described as follows: Antiproliferative activity against human SR cells assessed as reduction in cell growth. The class given is functional, cell-based.
Assay [2] has as its target T1, von Hippel-Lindau disease tumor suppressor/ALK tyrosine kinase receptor/Nucleophosmin (Homo sapiens, UniProt Q9UM73+P06748+P40337). The assay is described as follows: Protac activity at VHL/NPM-ALK fusion protein in human SR cells assessed as degradation of ALK. The class given is cell-based.
In another assay the test system is NCI-H69. The assay is described as follows: Antiproliferative activity against human NCI-H69 cells assessed as inhibition of cell proliferation. The class given is functional, cell-based.
A short description of another assay: cells. The settings on record: Homo sapiens, NCI-H1688.
Another assay concerns NCI-H2228. Briefly: Antiproliferative activity against human NCI-H2228 cells expressing EML4-ALK assessed as reduction in cell viability incubated for 72 hrs by CCK8 assay. The assay is classed as functional, cell-based. The settings on record: NCI-H2228, 72 h. (Tetrazolium dyes change colour on reduction, which living cells bring about.)
Assay [3] concerns the target T1, von Hippel-Lindau disease tumor suppressor/ALK tyrosine kinase receptor/Nucleophosmin. Briefly: Protac activity at VHL/NPM-ALK fusion protein in human SR cells assessed as degradation of ALK measured after 16 hrs in presence of proteasome inhibitor MG132. The assay is classed as cell-based.
Target sequence in this assay (P06748 whole entry partner, the tested form may be a part): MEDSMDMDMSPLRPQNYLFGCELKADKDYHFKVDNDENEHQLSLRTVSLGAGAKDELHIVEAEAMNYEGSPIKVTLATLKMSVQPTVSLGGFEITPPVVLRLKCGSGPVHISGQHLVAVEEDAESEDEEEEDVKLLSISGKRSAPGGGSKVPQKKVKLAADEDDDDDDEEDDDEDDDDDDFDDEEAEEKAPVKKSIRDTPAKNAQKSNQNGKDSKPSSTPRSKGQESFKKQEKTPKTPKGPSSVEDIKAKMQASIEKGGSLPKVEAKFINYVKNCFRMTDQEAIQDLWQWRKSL
Target sequence in this assay (P40337 whole entry partner, the tested form may be a part): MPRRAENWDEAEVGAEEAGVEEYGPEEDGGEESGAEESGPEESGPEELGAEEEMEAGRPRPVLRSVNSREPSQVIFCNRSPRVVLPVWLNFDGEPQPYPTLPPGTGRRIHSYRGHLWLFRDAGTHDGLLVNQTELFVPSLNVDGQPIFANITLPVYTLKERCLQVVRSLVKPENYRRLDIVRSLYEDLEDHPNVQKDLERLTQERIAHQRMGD
Target sequence in this assay (Q9UM73 19-1620 limits assumed): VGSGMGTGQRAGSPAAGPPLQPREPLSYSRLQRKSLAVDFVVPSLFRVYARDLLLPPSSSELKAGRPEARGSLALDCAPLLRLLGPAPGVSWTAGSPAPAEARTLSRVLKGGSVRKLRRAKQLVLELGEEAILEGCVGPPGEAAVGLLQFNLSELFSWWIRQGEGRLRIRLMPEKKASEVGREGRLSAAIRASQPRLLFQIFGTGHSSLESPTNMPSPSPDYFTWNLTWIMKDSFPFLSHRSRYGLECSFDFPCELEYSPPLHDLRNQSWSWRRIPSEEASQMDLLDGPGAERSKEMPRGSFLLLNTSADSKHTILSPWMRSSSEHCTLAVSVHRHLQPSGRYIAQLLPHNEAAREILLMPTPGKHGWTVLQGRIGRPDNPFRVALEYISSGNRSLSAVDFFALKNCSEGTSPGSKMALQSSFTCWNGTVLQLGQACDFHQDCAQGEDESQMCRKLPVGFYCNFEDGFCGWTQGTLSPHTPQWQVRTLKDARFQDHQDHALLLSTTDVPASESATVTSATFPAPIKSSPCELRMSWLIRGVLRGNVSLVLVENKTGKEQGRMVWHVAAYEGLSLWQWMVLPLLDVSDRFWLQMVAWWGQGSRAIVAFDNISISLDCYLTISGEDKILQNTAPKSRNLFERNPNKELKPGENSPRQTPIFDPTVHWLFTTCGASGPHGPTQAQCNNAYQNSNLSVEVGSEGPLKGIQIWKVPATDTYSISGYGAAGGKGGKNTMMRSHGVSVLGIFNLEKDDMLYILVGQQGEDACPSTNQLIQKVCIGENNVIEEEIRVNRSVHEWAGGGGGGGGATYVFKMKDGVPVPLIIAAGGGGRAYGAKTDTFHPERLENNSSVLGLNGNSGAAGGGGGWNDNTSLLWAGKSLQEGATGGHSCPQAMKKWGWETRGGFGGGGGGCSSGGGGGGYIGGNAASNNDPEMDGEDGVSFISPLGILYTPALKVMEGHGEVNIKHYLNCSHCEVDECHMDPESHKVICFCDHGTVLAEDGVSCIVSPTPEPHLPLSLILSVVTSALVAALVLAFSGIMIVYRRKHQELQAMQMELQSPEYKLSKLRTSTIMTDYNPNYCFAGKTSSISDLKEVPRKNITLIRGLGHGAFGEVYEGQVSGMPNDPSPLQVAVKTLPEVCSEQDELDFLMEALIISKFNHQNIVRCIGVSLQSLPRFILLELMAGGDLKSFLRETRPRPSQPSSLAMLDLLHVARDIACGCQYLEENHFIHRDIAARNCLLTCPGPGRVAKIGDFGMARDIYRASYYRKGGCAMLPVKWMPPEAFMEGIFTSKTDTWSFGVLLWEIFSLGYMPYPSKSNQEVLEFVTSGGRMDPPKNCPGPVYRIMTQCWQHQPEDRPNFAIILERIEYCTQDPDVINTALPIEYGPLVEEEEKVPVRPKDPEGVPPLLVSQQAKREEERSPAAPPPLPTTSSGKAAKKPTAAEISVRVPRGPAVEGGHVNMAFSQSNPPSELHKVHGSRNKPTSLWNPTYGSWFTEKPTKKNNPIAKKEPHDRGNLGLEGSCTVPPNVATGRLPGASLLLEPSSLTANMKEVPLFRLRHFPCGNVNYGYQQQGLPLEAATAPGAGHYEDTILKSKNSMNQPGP
Assay [4] concerns the target von Hippel-Lindau disease tumor suppressor/Uridine-cytidine kinase 2 (Homo sapiens) (UniProt Q9BZX2+P40337). Briefly: Protac activity at VHL/UCK2 in human SR cells assessed as induction of UCK2 degradation. The assay is classed as cell-based.
The target in assay [5] is T1, von Hippel-Lindau disease tumor suppressor/ALK tyrosine kinase receptor/Nucleophosmin. Briefly: Protac activity at VHL/NPM-ALK fusion protein in human SR cells assessed as reduction in STAT3 phosphorylation at 1 to 500 nM. The class given is cell-based. The settings on record: dose 1-500 nM.
Target sequence in this assay (P06748 whole entry partner, the tested form may be a part): as the sequence (P06748 whole entry partner, the tested form may be a part) above
Target sequence in this assay (P40337 whole entry partner, the tested form may be a part): as the sequence (P40337 whole entry partner, the tested form may be a part) above
Target sequence in this assay (Q9UM73 19-1620 limits assumed): as the sequence (Q9UM73 19-1620 limits assumed) above
Assay [6] deals with von Hippel-Lindau disease tumor suppressor/ALK tyrosine kinase receptor/Echinoderm microtubule-associated protein-like 4 (Homo sapiens, UniProt P40337+Q9HC35+Q9UM73, G1202R).
For assay [7], the target named is T1, von Hippel-Lindau disease tumor suppressor/ALK tyrosine kinase receptor/Nucleophosmin. The assay is described as follows: Protac activity at VHL/NPM-ALK fusion protein in human SR cells assessed as induction of ALK degradation 100 nM treated for 24 hrs followed by compound washout and measured after 24 to 48 hrs by Western blot analysis. The class given is cell-based. A general note: Immunoblotting shows a protein as a band on a membrane.
Target sequence in this assay (P06748 whole entry partner, the tested form may be a part): as the sequence (P06748 whole entry partner, the tested form may be a part) above
Target sequence in this assay (P40337 whole entry partner, the tested form may be a part): as the sequence (P40337 whole entry partner, the tested form may be a part) above
Target sequence in this assay (Q9UM73 19-1620 limits assumed): as the sequence (Q9UM73 19-1620 limits assumed) above

Assay [8] shares this target. Briefly: Protac activity at VHL/NPM-ALK fusion protein in human SR cells assessed as degradation of ALK measured after 16 hrs in presence of proteasome inhibitor MLN4924. The assay is classed as cell-based.
Target sequence in this assay (P06748 whole entry partner, the tested form may be a part): as the sequence (P06748 whole entry partner, the tested form may be a part) above
Target sequence in this assay (P40337 whole entry partner, the tested form may be a part): as the sequence (P40337 whole entry partner, the tested form may be a part) above
Target sequence in this assay (Q9UM73 19-1620 limits assumed): as the sequence (Q9UM73 19-1620 limits assumed) above
The target is the same in assay [9]. Briefly: Protac activity at VHL/NPM-ALK fusion protein in human SR cells assessed as degradation of ALK at 100 nM. The class given is cell-based. The settings on record: TDE = time-dependent effect.
Target sequence in this assay (P06748 whole entry partner, the tested form may be a part): as the sequence (P06748 whole entry partner, the tested form may be a part) above
Target sequence in this assay (P40337 whole entry partner, the tested form may be a part): as the sequence (P40337 whole entry partner, the tested form may be a part) above
Target sequence in this assay (Q9UM73 19-1620 limits assumed): as the sequence (Q9UM73 19-1620 limits assumed) above
Assay [10] concerns the target von Hippel-Lindau disease tumor suppressor/Aurora kinase A (Homo sapiens) (UniProt O14965+P40337). Briefly: Protac activity at VHL/Aurora A in human SR cells assessed as induction of Aurora A degradation. The class given is cell-based.
The target of assay [11] is T1, von Hippel-Lindau disease tumor suppressor/ALK tyrosine kinase receptor/Nucleophosmin. The assay is described as follows: Protac activity at VHL/NPM-ALK fusion protein in human SR cells assessed as reduction in ALK phosphorylation at 10 nM. The class given is cell-based.
Target sequence in this assay (P06748 whole entry partner, the tested form may be a part): as the sequence (P06748 whole entry partner, the tested form may be a part) above
Target sequence in this assay (P40337 whole entry partner, the tested form may be a part): as the sequence (P40337 whole entry partner, the tested form may be a part) above
Target sequence in this assay (Q9UM73 19-1620 limits assumed): as the sequence (Q9UM73 19-1620 limits assumed) above
Assay [12] has as its target von Hippel-Lindau disease tumor suppressor/Receptor-type tyrosine-protein kinase FLT3 (Homo sapiens) (UniProt P36888+P40337). The assay is described as follows: Protac activity at VHL/FLT3 in human SR cells assessed as induction of FLT3 degradation. The assay is classed as cell-based.
Assay [13] addresses von Hippel-Lindau disease tumor suppressor/Cyclin-G-associated kinase (Homo sapiens) (UniProt O14976+P40337). The assay is described as follows: Protac activity at VHL/GAK in human SR cells assessed as induction of GAK degradation. The class given is cell-based.
The target in assay [14] is von Hippel-Lindau disease tumor suppressor/ALK tyrosine kinase receptor/Echinoderm microtubule-associated protein-like 4 (Homo sapiens) (UniProt Q9UM73+Q9HC35+P40337). The assay is described as follows: Protac activity at VHL/EML4-ALK fusion protein in human NCI-H2228 cells assessed as induction of ALK degradation at 50 to 500 nM. The settings on record: dose 50-500 nM. The class given is cell-based.

For assay [15], the target named is von Hippel-Lindau disease tumor suppressor/Insulin-like growth factor 1 receptor (Homo sapiens) (UniProt P08069+P40337). The assay is described as follows: Protac activity at VHL/IGF1R in human SR cells assessed as induction of IGF1R degradation. The assay is classed as cell-based.
Assay [16] addresses von Hippel-Lindau disease tumor suppressor/ALK tyrosine kinase receptor/Echinoderm microtubule-associated protein-like 4 (Homo sapiens, UniProt Q9UM73+Q9HC35+P40337, G1202R). The assay is described as follows: Protac activity at VHL/EML4-ALK G1202R mutant fusion protein (unknown origin) expressed in HEK293T cells assessed as induction of ALK degradation by Western blot analysis. The class given is cell-based.

The target of assay [17] is von Hippel-Lindau disease tumor suppressor/Proto-oncogene tyrosine-protein kinase ROS (Homo sapiens) (UniProt P08922+P40337). The assay is described as follows: Protac activity at VHL/ROS1 in human SR cells assessed as induction of ROS1 degradation. The assay is classed as cell-based.
The target in the next assay is EML4-ALK (Homo sapiens, UniProt Q9UM73, G1202R). The assay is described as follows: Inhibition of EML4-ALK G1202R mutant fusion protein (unknown origin) expressed in HEK293T cells. The assay is classed as cell-based.
For assay [18], the target named is T1, von Hippel-Lindau disease tumor suppressor/ALK tyrosine kinase receptor/Nucleophosmin. Briefly: Protac activity at VHL/NPM-ALK fusion protein in human SR cells assessed as degradation of ALK at 100 nM measured after 24 hrs. The class given is cell-based.
Assay [19] has the same target. Briefly: Protac activity at VHL/NPM-ALK fusion protein in human SR cells assessed as reduction in ALK phosphorylation at 50 nM. The assay is classed as cell-based. Details: scale not given: the % may be the effect or the level left.

Sequence of NPM/ALK (Nucleophosmin/ALK tyrosine kinase receptor) (Homo sapiens) (P06748 whole entry partner, the tested form may be a part): as the sequence (P06748 whole entry partner, the tested form may be a part) above
Sequence of NPM/ALK (Nucleophosmin/ALK tyrosine kinase receptor) (Homo sapiens) (Q9UM73 19-1620 limits assumed): as the sequence (Q9UM73 19-1620 limits assumed) above
Description for cells: Antiproliferative activity against human NCI-H1688 cells assessed as inhibition of cell proliferation

As to `COc1cc(N2CCC(N)CC2)ccc1Nc1ncc(Cl)c(Nc2ccccc2P(C)(C)=O)n1`, the result in assay [1] was inactive. In addition, the IC50 with SR was 1.7 nM.
Regarding `COc1cc(N2CCC(N3CCN(C(=O)CCCCCCCC(=O)N[C@H](C(=O)N4C[C@H](O)C[C@H]4C(=O)NCc4ccc(-c5scnc5C)cc4)C(C)(C)C)CC3)CC2)ccc1Nc1ncc(Cl)c(Nc2ccccc2P(C)(C)=O)n1`, the 50% degradation concentration (DC50) in [2] turned out to be 25.1 nM. Besides, the outcome in the assay with SR was Active.
As for `COc1cc(N2CCC(N3CCNCC3)CC2)ccc1Nc1ncc(Cl)c(Nc2ccccc2P(C)(C)=O)n1`, the outcome in assay [1] was inactive. The half-inhibitory concentration (IC50) in the assay with SR was 6.8 nM.
As to `COc1cc(N2CCC(NC(=O)CCCCCCC(=O)N[C@H](C(=O)N3C[C@H](O)C[C@H]3C(=O)NCc3ccc(-c4scnc4C)cc3)C(C)(C)C)CC2)ccc1Nc1ncc(Cl)c(Nc2ccccc2P(C)(C)=O)n1`, the 50% degradation concentration (DC50) in assay [2] came to 9.1 nM. For the same molecule, the result with SR was Active.
With `COc1cc(N2CCN(C(=O)CCCCCCCCC(=O)N[C@H](C(=O)N3C[C@H](O)C[C@H]3C(=O)NCc3ccc(-c4scnc4C)cc3)C(C)(C)C)CC2)ccc1Nc1ncc(Cl)c(Nc2ccccc2P(C)(C)=O)n1`, the half-maximal degradation concentration (DC50) in assay [2] was above 50 nM. In the assay on SR, the outcome was Active.
For the molecule `COc1cc(N2CCC(N3CCN(C)CC3)CC2)ccc1Nc1ncc(Cl)c(Nc2ccccc2P(C)(C)=O)n1` [BRIGATINIB], the outcome in assay [1] was inactive. Also, the concentration for half-maximal inhibition (IC50) in the assay on NCI-H69 was determined as 2600 nM; in “cells”, 691 nM; in the assay with NCI-H2228, 58.2 nM; in the assay on SR, 2.7 nM.
For `COc1cc(N2CCN(C(=O)CCCCCCC(=O)N[C@H](C(=O)N3C[C@H](O)C[C@H]3C(=O)NCc3ccc(-c4scnc4C)cc3)C(C)(C)C)CC2)ccc1Nc1ncc(Cl)c(Nc2ccccc2P(C)(C)=O)n1`, in assay [2], the DC50 is above 50 nM. The result in the assay on SR was Active.
For `COc1cc(N2CCC(NC(=O)CCCCCCCCCC(=O)N[C@H](C(=O)N3C[C@H](O)C[C@H]3C(=O)NCc3ccc(-c4scnc4C)cc3)C(C)(C)C)CC2)ccc1Nc1ncc(Cl)c(Nc2ccccc2P(C)(C)=O)n1`, the outcome in assay [3], in assay [4], in assay [8], in assay [10], in assay [12] and in assay [13] was inactive. For the same molecule, the result in [15] and in assay [17] was inactive. For the same molecule, the outcome in assay [5], in [7], in assay [11] and in [14] was Active. The half-inhibitory concentration (IC50) in assay [6] turned out to be 166 nM; in the assay with NCI-H69 it was 799 nM; in the assay “cells” it was 259 nM; with NCI-H2228, 46 nM; in the assay with SR, 1.7 nM; on EML4-ALK, 146 nM. For the same molecule, the figures for the DC50 in assay [2] and in assay [16] were 7 nM and below 200 nM, respectively. In addition, the Activity entry in assay [9] was “Tde”.
As to `COc1cc(N2CCC(N3CCN(C(=O)CCCCCCC(=O)N[C@H](C(=O)N4C[C@H](O)C[C@H]4C(=O)NCc4ccc(-c5scnc5C)cc4)C(C)(C)C)CC3)CC2)ccc1Nc1ncc(Cl)c(Nc2ccccc2P(C)(C)=O)n1`, in [2], the 50% degradation concentration (DC50) came out at 11.4 nM. The result in the assay on SR was Active.
On to `COc1cc(N2CCC(NC(=O)CCCCCCCC(=O)N[C@H](C(=O)N3C[C@H](O)C[C@H]3C(=O)NCc3ccc(-c4scnc4C)cc3)C(C)(C)C)CC2)ccc1Nc1ncc(Cl)c(Nc2ccccc2P(C)(C)=O)n1`, for which, in assay [2], the DC50 worked out at 20.9 nM. For the same molecule, in the assay on SR, the outcome was Active.
With `COc1cc(N2CCC(NC(=O)CCCCCCCCCC(=O)N[C@H](C(=O)N3C[C@@H](O)C[C@H]3C(=O)NCc3ccc(-c4scnc4C)cc3)C(C)(C)C)CC2)ccc1Nc1ncc(Cl)c(Nc2ccccc2P(C)(C)=O)n1`, the result in [5] was Active. The results for the concentration for half-maximal inhibition (IC50) (in assay [6]; in the assay on NCI-H2228; in the assay with SR) were 608 nM, 114 nM and 5.5 nM, respectively. Besides, the outcome in assay [18] was inactive. The Activity in assay [19] was 100%.
As for `Cc1ncsc1-c1ccc(CNC(=O)[C@@H]2C[C@@H](O)CN2C(=O)[C@@H](NC(=O)CCCCCCCCCC(=O)O)C(C)(C)C)cc1`, the IC50 in the assay with NCI-H69 is above 40000 nM; in “cells”, above 45000 nM.

The IC50 is the concentration that inhibits the measured activity by half. What is called DC50 is the concentration giving 50% degradation.

(Values after ChEMBL document CHEMBL4680228 (Eur J Med Chem, 2020).)
